The values that follow come from US5523315A, “N-(hydroxyethyl)butanediamide derivatives” (Bio-Mega/Boehringer Ingelheim Research Inc., priority 1993, dated 1996).

This test concerns the target T1, human renin (Homo sapiens, UniProt P00797).
T1 construct: A human plasma pool is used as the source of both the substrate (angiotensinogen) and the enzyme (renin); from tissue; host or cells: pooled human plasma
T1 sequence (P00797 67-406): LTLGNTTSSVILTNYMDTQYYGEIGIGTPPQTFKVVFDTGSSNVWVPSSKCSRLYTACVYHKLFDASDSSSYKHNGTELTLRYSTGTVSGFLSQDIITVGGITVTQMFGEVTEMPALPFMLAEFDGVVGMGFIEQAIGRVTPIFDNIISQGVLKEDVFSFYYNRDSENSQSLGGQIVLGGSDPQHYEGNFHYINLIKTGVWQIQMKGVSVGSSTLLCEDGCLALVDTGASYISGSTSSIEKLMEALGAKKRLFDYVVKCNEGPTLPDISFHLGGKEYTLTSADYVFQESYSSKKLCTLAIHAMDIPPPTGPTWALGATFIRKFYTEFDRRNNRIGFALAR
The test is described as follows: plasma renin assay (inhibition of human renin; angiotensin I generated, measured by radioimmunoassay). The format is biochemical. The note with it: human plasma pool, pH 6.0, 2 h incubation at 37°. In a few lines: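 Pooled human plasma supplies both renin and angiotensinogen; inhibitor in MES/1% HSA buffer (1% DMSO final) incubated 2 h at 37° at pH 6.0. Angiotensin I generated quantified by radioimmunoassay, inhibition relative to no-inhibitor control, IC50 by nonlinear regression.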
`CC(=O)CN(CC1CCCCC1)C(=O)C[C@@H](Cc1cscn1)C(=O)N[C@@H](CC1CCCCC1)[C@@H](O)[C@@H](O)CC(C)C` [Compound 60, N^4-(cyclohexylmethyl)-N^4-(2-oxopropyl)-N^1-[1(S)-(cyclohexylmethyl)-2(R),3(S)-dihydroxy-5-methylhexyl]-2(R)-(4-thiazolylmethyl)butanediamide]: the IC50 worked out at 2 nM. Compound `CC(C)C[C@H](O)[C@H](O)[C@H](CC1CCCCC1)NC(=O)[C@@H](CC(=O)N(CC(=O)C(C)C)CC1CCCCC1)Cc1cscn1` [Compound 61, N^4-(cyclohexylmethyl)-N^4-(3-methyl-2-oxobutyl)-N^1-[1(S)-(cyclohexylmethyl)-2(R),3(S)-dihydroxy-5-methylhexyl]-2(R)-(4-thiazolylmethyl)butanediamide] registered an IC50 of 9 nM. `COC1(CN(CC(=O)N(C)CCc2ccccn2)C(=O)C[C@@H](Cc2csc(N)n2)C(=O)N[C@@H](CC2CCCCC2)[C@@H](O)[C@@H](O)CC(C)C)CCCCC1` [Compound 62, N^4-[(1-methoxycyclohexyl)methyl]-N^4 -{2-{methyl[2-(2-pyridinyl)ethyl]amino}-2-oxoethyl}-N^1-[1(S)-(cyclohexylmethyl)-2(R),3(S)-dihydroxy-5-methylhexyl]-2(R)-[(2-amino-4-thiazolyl)methyl]butanediamide]: the IC50 was found to be 2 nM. With `CC(C)C[C@H](O)[C@H](O)[C@H](CC1CCCCC1)NC(=O)[C@@H](CC(=O)N(CC(=O)C(C)C)CC1CCCCC1)Cc1csc(N)n1` [Compound 63, N^4-(cyclohexylmethyl)-N^4-(3-methyl-2-oxobutyl)-N^1-[1(S)-(cyclohexylmethyl)-2(R),3(S)-dihydroxy-5-methylhexyl]-2(R)-[(2-amino-4-thiazolyl)methyl]butanediamide], the IC50 was 5 nM.
